Measurements reported in patent US20240150334A1, “HSD17B13 INHIBITORS AND/OR DEGRADERS” (Pfizer Inc., priority 2022, published 2024).
Counter-ions that a name gives are not always drawn.

What follows are compounds tested against wild type human HSD17B13 (Homo sapiens (Human), UniProt Q7Z5P4) (assay: HEK_Beta-Est LCMS_IC50_Tekcel, whole-cell HEK-HSD17B13 inhibition assay, estrone production by LCMS). Details: geometric mean, HEK cells stably expressing wild type human HSD17B13, 25 μM FAC beta-estradiol, read-out: HEK_Beta-Est LCMS_IC50—Tekcel GMean IC50.
Sequence of wild type human HSD17B13 (Q7Z5P4 20-300): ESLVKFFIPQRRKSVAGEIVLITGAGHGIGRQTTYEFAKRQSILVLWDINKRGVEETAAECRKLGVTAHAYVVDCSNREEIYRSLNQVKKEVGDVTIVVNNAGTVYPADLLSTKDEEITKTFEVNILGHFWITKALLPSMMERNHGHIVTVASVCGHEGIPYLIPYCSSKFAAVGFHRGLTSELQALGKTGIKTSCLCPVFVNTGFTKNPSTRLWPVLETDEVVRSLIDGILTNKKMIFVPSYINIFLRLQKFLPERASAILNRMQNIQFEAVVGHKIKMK
Format: cell-based
Protocol: HEK_Beta-Est LCMS_IC50_Tekcel
Inhibition potency of test compounds was determined using a whole-cell HEK-HSD17B13 inhibition assay, utilizing a LCMS readout.
HSD17B13 uses the oxidized form of nicotinamide adenine dinucleotide (NAD+) as a cofactor during metabolism of beta-estradiol (substrate), converting NAD+ to the reduced form (NADH) and beta-estradiol to its product (estrone). Estrone production is quantified by LCMS, and used as a measure of HSD17B13 enzyme activity.
([…]: 5% CO2). […] Growth media was then removed from the cell plates and replaced with 10 μL of 2×FAC test compound, and incubated for 1 hour (with lid) at 37° C. […] The reaction was incubated for 2 hours (with lid) at 37° C. […] Amount of product (estrone) was then quantified by LCMS. Data expressed as product area ratio (PAR) were then normalized to control wells using Activity Base (IDBS). Zero percent effect (ZPE) was defined as PAR generated from uninhibited HSD17B13 (vehicle control).

Compound | IC50
O=C(NC[C@H]1CC[C@H](n2cc3ccc(-c4ccsn4)cc3n2)CC1)c1cc(F)c(O)c(F)c1 [Example 98, 3,5-difluoro-4-hydroxy-N-({(1r,4r)-4-[6-(1,2-thiazol-3-yl)-2H-indazol-2-yl]cyclohexyl}methyl) benzamide] | 0.11 µM
COc1ccc(-c2ccc3cn([C@H]4CC[C@H](CNC(=O)c5cc(F)c(O)c(F)c5)CC4)nc3c2)nc1 [Example 99, 3,5-difluoro-4-hydroxy-N-({(1r,4r)-4-[6-(5-methoxy-pyridin-2-yl)-2H-indazol-2-yl]cyclohexyl}methyl) benzamide, trifluoroacetate salt] | 0.22 µM
O=C(NC[C@H]1CC[C@H](n2cc3ccc(-c4cnsc4)cc3n2)CC1)c1cc(F)c(O)c(F)c1 [Example 100, 3,5-difluoro-4-hydroxy-N-({(1r,4r)-4-[6-(1,2-thiazol-4-yl)-2H-indazol-2-yl]cyclohexyl}methyl)benzamide] | 0.065 µM
O=C(NC[C@H]1CC[C@H](n2cc3ccc(-c4ncc5c(n4)COC5)cc3n2)CC1)c1cc(F)c(O)c(F)c1 [Example 101, N-({(1r,4r)-4-[6-(5,7-dihydrofuro[3,4-d]pyrimidin-2-yl)-2H-indazol-2-yl]cyclohexyl}methyl)-3,5-difluoro-4-hydroxybenzamide] | 0.14 µM
Cc1nnc(-c2ccc3cn([C@H]4CC[C@H](CNC(=O)c5cc(F)c(O)c(F)c5)CC4)nc3c2)s1 [Example 102, 3,5-difluoro-4-hydroxy-N-({(1r,4r)-4-[6-(5-methyl-1,3,4-thiadiazol-2-yl)-2H-indazol-2-yl]cyclohexyl}methyl) benzamide, ammonium salt] | 0.2 µM
O=C(NC[C@H]1CC[C@H](n2cc3ccc(-c4cn5ccccc5n4)cc3n2)CC1)c1cc(F)c(O)c(F)c1 [Example 103, 3,5-difluoro-4-hydroxy-N-({(1r,4r)-4-[6-(imidazo[1,2-a]pyridin-2-yl)-2H-indazol-2-yl]cyclohexyl}methyl) benzamide, trifluoroacetate salt] | 0.36 µM
Cn1cc(-c2ccc3cn([C@H]4CC[C@H](CNC(=O)c5cc(F)c(O)c(F)c5)CC4)nc3c2)ccc1=O [Example 104, 3,5-difluoro-4-hydroxy-N-({(1r,4r)-4-[6-(1-methyl-6-oxo-1,6-dihydropyridin-3-yl)-2H-indazol-2-yl]cyclohexyl}methyl) benzamide] | 0.37 µM
O=C(NC[C@H]1CC[C@H](n2cc3ccc(-c4ncc(C5CC5)s4)cc3n2)CC1)c1cc(F)c(O)c(F)c1 [Example 105, N-({(1r,4r)-4-[6-(5-cyclopropyl-1,3-thiazol-2-yl)-2H-indazol-2-yl]cyclohexyl}methyl)-3,5-difluoro-4-hydroxybenzamide] | 0.37 µM
COc1cc(-c2ccc3cn([C@H]4CC[C@H](CNC(=O)c5cc(F)c(O)c(F)c5)CC4)nc3c2)ccn1 [Example 106, 3,5-difluoro-4-hydroxy-N-({(1r,4r)-4-[6-(2-methoxypyridin-4-yl)-2H-indazol-2-yl]cyclohexyl}methyl) benzamide, trifluoroacetate salt] | 0.15 µM
Cc1nsc(-c2ccc3cn([C@H]4CC[C@H](CNC(=O)c5cc(F)c(O)c(F)c5)CC4)nc3c2)n1 [Example 107, 3,5-difluoro-4-hydroxy-N-({(1r,4r)-4-[6-(3-methyl-1,2,4-thiadiazol-5-yl)-2H-indazol-2-yl]cyclo-hexyl}methyl) benzamide] | 0.16 µM
COc1ccc(-c2ccc3cn([C@H]4CC[C@H](CNC(=O)c5cc(F)c(O)c(F)c5)CC4)nc3c2)cn1 [Example 108, 3,5-difluoro-4-hydroxy-N-({(1r,4r)-4-[6-(6-methoxy-pyridin-3-yl)-2H-indazol-2-yl]cyclohexyl}methyl) benzamide, trifluoroacetate salt] | 0.14 µM
COc1nccc(-c2ccc3cn([C@H]4CC[C@H](CNC(=O)c5cc(F)c(O)c(F)c5)CC4)nc3c2)n1 [Example 109, 3,5-difluoro-4-hydroxy-N-({(1r,4r)-4-[6-(2-methoxy-pyrimidin-4-yl)-2H-indazol-2-yl]cyclohexyl}methyl) benzamide] | 0.17 µM
O=C(NC[C@H]1CC[C@H](n2cc3ccc(-c4nccs4)cc3n2)CC1)c1cc(F)c(O)c(F)c1 [Example 110, 3,5-difluoro-4-hydroxy-N-({(1r,4r)-4-[6-(1,3-thiazol-2-yl)-2H-indazol-2-yl]cyclohexyl}methyl) benzamide] | 0.11 µM
O=C(NC[C@H]1CC[C@H](n2cc3ccc(-c4cnoc4)cc3n2)CC1)c1cc(F)c(O)c(F)c1 [Example 111, 3,5-difluoro-4-hydroxy-N-({(1r,4r)-4-[6-(1,2-oxazol-4-yl)-2H-indazol-2-yl]cyclohexyl}methyl) benzamide] | 0.081 µM
O=C(NC[C@H]1CC[C@H](n2cc3ccc(-c4cnc5[nH]ccc5c4)cc3n2)CC1)c1cc(F)c(O)c(F)c1 [Example 112, 3,5-difluoro-4-hydroxy-N-({(1r,4r)-4-[6-(1H-pyrrolo[2,3-b]pyridin-5-yl)-2H-indazol-2-yl]cyclohexyl}methyl) benzamide, trifluoroacetate salt] | 0.22 µM
O=C(NC[C@H]1CC[C@H](n2cc3ccc(-c4cccn5ncnc45)cc3n2)CC1)c1cc(F)c(O)c(F)c1 [Example 113, 3,5-difluoro-4-hydroxy-N-({(1r,4r)-4-[6-([1,2,4]triazolo[1,5-a]pyridin-8-yl)-2H-indazol-2-yl]cyclohexyl}methyl) benzamide, trifluoroacetate salt] | 0.32 µM
O=C(NC[C@H]1CC[C@H](n2cc3ccc(-c4csc(N5CCOCC5)n4)cc3n2)CC1)c1cc(F)c(O)c(F)c1 [Example 114, 3,5-difluoro-4-hydroxy-N-{[(1r,4r)-4-{6-[2-(morpholin-4-yl)-1,3-thiazol-4-yl]-2H-indazol-2-yl}cyclohexyl]methyl} benzamide] | 0.17 µM
Cc1cnc(-c2ccc3cn([C@H]4CC[C@H](CNC(=O)c5cc(F)c(O)c(F)c5)CC4)nc3c2)s1 [Example 115, 3,5-difluoro-4-hydroxy-N-({(1r,4r)-4-[6-(5-methyl-1,3-thiazol-2-yl)-2H-indazol-2-yl]cyclohexyl}methyl) benzamide] | 0.19 µM
COc1cccc(-c2ccc3cn([C@H]4CC[C@H](CNC(=O)c5cc(F)c(O)c(F)c5)CC4)nc3c2)n1 [Example 116, 3,5-difluoro-4-hydroxy-N-({(1r,4r)-4-[6-(6-methoxy-pyridin-2-yl)-2H-indazol-2-yl]cyclohexyl}methyl) benzamide, trifluoroacetate salt] | 0.19 µM
O=C(NC[C@H]1CC[C@H](n2cc3ccc(-c4ccn5ccnc5c4)cc3n2)CC1)c1cc(F)c(O)c(F)c1 [Example 117, 3,5-difluoro-4-hydroxy-N-({(1r,4r)-4-[6-(imidazo[1,2-a]pyridin-7-yl)-2H-indazol-2-yl]cyclohexyl}methyl) benzamide, trifluoroacetate salt] | 0.18 µM
Cc1cccc(-c2ccc3cn([C@H]4CC[C@H](CNC(=O)c5cc(F)c(O)c(F)c5)CC4)nc3c2)n1 [Example 118, 3,5-difluoro-4-hydroxy-N-({(1r,4r)-4-[6-(6-methylpyridin-2-yl)-2H-indazol-2-yl]cyclohexyl}methyl) benzamide, trifluoroacetate salt] | 0.23 µM
O=C(NC[C@H]1CC[C@H](n2cc3ccc(-c4ccn5ncnc5c4)cc3n2)CC1)c1cc(F)c(O)c(F)c1 [Example 119, 3,5-difluoro-4-hydroxy-N-({(1r,4r)-4-[6-([1,2,4]triazolo[1,5-a]pyridin-7-yl)-2H-indazol-2-yl]cyclo-hexyl}methyl) benzamide, trifluoroacetate salt] | 0.15 µM
COc1cncc(-c2ccc3cn([C@H]4CC[C@H](CNC(=O)c5cc(F)c(O)c(F)c5)CC4)nc3c2)c1 [Example 120, 3,5-difluoro-4-hydroxy-N-({(1r,4r)-4-[6-(5-methoxypyridin-3-yl)-2H-indazol-2-yl]cyclohexyl}methyl) benzamide, trifluoroacetate salt] | 0.25 µM
CC(C)c1ncc(-c2ccc3cn([C@H]4CC[C@H](CNC(=O)c5cc(F)c(O)c(F)c5)CC4)nc3c2)o1 [Example 121, 3,5-difluoro-4-hydroxy-N-{[(1r,4r)-4-{6-[2-(propan-2-yl)-1,3-oxazol-5-yl]-2H-indazol-2-yl}cyclohexyl]methyl} benzamide] | 0.15 µM
O=C(NC[C@H]1CC[C@H](c2nc(-c3cnc(C(F)(F)F)cn3)no2)CC1)c1cc(F)c(O)c(F)c1F [Example 148, 2,3,5-trifluoro-4-hydroxy-N-{[(1r,4r)-4-{3-[5-(trifluoromethyl)pyrazin-2-yl]-1,2,4-oxadiazol-5-yl}cyclohexyl]methyl} benzamide] | 0.47 µM
O=C(NC[C@H]1CC[C@H](c2nc(-c3cnc(C(F)(F)F)cn3)no2)CC1)c1cc(F)c(O)cc1F [Example 149, 2,5-difluoro-4-hydroxy-N-{[(1r,4r)-4-{3-[5-(trifluoromethyl)pyrazin-2-yl]-1,2,4-oxadiazol-5-yl}cyclohexyl]methyl} benzamide] | 0.43 µM
O=C(NC[C@H]1CC[C@H](n2cc3cc(-c4ncccn4)ccc3n2)CC1)c1cc(F)c(O)c(F)c1 [Example 154, 3,5-difluoro-4-hydroxy-N-({(1r,4r)-4-[5-(pyrimidin-2-yl)-2H-indazol-2-yl]cyclohexyl}methyl) benzamide] | 0.11 µM
O=C(NC[C@H]1CC[C@H](n2cc3cc(-c4cscn4)ccc3n2)CC1)c1cc(F)c(O)c(F)c1 [Example 155, 3,5-difluoro-4-hydroxy-N-({(1r,4r)-4-[5-(1,3-thiazol-4-yl)-2H-indazol-2-yl]cyclohexyl}methyl) benzamide] | 0.12 µM
